Laboratory results: publication PMC6437697 (Journal of Medicinal Chemistry, 2019)

What was measured:
Assay in all cases: KINOMEscan
Format in all cases: binding
Conditions in all cases: read-out: % control activity remaining
AURKA = molecular target: T1, AURKA (Homo sapiens, UniProt O14965)
T1 construct: purchased Eurofins DiscoverX KINOMEscan
T1 sequence (O14965 1-403): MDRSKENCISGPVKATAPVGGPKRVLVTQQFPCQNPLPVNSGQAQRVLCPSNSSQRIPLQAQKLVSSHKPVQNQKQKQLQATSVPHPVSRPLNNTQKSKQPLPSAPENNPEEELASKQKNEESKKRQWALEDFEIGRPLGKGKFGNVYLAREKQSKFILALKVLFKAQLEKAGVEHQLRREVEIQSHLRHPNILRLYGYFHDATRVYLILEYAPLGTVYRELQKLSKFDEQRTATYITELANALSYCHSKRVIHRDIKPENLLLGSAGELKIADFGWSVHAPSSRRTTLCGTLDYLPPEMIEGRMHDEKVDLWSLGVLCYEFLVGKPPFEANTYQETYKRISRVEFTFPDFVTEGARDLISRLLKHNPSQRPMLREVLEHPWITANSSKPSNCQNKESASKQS

CSF1R-autoinhibited = molecular target: T2, CSF1R-autoinhibited (Homo sapiens, UniProt P07333)
T2 construct: purchased Eurofins DiscoverX KINOMEscan
T2 sequence (P07333 539-972 limits assumed): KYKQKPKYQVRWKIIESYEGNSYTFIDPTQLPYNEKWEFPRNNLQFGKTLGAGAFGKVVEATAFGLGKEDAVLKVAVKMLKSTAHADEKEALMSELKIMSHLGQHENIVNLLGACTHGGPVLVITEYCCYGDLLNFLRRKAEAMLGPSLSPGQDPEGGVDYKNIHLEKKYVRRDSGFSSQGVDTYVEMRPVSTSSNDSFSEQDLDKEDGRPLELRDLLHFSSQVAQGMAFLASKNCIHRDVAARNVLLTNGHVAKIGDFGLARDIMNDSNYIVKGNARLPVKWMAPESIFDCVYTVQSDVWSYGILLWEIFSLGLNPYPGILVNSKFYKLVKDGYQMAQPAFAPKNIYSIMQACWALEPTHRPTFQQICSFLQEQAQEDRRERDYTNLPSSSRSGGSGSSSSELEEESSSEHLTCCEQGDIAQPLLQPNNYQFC

GSK3B = molecular target: T3, GSK3B (Homo sapiens, UniProt P49841)
T3 construct: purchased Eurofins DiscoverX KINOMEscan

IRAK3 = molecular target: T4, IRAK3 (Homo sapiens, UniProt Q9Y616)
T4 construct: purchased Eurofins DiscoverX KINOMEscan
T4 sequence (Q9Y616 1-596): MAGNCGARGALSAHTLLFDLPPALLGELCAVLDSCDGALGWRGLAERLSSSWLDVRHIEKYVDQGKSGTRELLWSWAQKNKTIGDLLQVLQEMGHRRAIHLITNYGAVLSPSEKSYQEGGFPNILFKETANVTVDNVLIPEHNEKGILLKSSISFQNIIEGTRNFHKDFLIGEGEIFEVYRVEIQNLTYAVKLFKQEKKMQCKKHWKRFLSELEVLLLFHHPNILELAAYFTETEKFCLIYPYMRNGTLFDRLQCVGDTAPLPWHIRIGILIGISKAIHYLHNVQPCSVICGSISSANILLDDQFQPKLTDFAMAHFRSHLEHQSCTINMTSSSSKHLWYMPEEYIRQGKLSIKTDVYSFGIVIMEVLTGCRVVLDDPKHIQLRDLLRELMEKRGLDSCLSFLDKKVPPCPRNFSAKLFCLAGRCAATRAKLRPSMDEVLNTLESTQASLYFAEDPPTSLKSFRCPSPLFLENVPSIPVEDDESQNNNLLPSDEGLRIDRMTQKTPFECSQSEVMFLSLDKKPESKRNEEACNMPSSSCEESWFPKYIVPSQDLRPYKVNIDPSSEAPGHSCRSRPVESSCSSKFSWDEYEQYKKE

KIT(V559D) = molecular target: T5, KIT(V559D) (Homo sapiens, UniProt P10721, V559D)
T5 construct: purchased Eurofins DiscoverX KINOMEscan

MAK = molecular target: T6, MAK (Homo sapiens, UniProt P20794)
T6 construct: purchased Eurofins DiscoverX KINOMEscan
T6 sequence (P20794 1-623): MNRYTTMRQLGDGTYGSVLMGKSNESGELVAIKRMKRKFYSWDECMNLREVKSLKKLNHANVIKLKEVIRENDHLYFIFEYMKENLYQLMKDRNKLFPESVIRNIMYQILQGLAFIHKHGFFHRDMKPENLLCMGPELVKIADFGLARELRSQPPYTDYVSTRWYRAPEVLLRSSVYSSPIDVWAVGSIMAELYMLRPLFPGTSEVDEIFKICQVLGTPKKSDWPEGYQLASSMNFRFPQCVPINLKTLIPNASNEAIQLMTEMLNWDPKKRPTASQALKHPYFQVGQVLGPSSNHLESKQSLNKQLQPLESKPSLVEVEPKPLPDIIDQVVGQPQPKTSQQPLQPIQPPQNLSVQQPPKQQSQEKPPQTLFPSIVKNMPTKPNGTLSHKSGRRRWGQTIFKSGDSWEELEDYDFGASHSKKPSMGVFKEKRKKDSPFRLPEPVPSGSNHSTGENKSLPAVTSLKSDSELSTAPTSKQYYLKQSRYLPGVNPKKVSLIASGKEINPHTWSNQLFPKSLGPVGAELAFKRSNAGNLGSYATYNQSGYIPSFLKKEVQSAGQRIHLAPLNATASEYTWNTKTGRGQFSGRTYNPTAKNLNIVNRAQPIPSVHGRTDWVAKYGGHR

PHKG2 = molecular target: T7, PHKG2 (Homo sapiens, UniProt P15735)
T7 construct: purchased Eurofins DiscoverX KINOMEscan
T7 sequence (P15735 1-406): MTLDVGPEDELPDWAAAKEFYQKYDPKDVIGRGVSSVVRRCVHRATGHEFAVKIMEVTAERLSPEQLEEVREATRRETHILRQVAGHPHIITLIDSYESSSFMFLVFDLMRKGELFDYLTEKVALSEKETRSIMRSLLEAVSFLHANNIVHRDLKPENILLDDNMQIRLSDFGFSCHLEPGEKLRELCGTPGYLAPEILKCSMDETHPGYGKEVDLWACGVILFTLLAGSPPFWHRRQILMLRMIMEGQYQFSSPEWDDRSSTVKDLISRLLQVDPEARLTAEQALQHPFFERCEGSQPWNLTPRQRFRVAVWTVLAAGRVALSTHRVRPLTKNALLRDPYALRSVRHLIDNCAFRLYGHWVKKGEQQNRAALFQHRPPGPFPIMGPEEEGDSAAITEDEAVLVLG

STK16 = molecular target: T8, STK16 (Homo sapiens, UniProt O75716)
T8 construct: purchased Eurofins DiscoverX KINOMEscan
T8 sequence (O75716 whole entry): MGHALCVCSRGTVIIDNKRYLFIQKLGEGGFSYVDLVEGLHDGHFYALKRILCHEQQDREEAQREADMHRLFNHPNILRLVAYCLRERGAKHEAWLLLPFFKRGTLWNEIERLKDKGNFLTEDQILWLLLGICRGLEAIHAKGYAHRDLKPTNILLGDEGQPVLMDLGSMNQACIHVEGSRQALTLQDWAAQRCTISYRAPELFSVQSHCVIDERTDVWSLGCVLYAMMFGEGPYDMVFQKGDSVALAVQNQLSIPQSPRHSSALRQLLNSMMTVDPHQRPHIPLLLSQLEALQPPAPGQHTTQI

T3 sequence (P49841 whole entry): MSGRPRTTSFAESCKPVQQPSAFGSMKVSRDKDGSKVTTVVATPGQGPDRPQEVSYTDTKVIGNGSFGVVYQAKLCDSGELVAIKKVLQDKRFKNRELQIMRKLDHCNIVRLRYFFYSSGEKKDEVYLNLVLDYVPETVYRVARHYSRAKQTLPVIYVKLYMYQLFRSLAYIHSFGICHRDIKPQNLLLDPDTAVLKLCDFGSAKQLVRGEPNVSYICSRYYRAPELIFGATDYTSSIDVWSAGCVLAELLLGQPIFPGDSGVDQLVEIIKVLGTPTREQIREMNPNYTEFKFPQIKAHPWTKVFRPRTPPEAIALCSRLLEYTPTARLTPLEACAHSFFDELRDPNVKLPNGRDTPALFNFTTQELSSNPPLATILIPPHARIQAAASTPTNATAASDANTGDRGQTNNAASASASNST
T5 sequence (P10721 26-976 V559D): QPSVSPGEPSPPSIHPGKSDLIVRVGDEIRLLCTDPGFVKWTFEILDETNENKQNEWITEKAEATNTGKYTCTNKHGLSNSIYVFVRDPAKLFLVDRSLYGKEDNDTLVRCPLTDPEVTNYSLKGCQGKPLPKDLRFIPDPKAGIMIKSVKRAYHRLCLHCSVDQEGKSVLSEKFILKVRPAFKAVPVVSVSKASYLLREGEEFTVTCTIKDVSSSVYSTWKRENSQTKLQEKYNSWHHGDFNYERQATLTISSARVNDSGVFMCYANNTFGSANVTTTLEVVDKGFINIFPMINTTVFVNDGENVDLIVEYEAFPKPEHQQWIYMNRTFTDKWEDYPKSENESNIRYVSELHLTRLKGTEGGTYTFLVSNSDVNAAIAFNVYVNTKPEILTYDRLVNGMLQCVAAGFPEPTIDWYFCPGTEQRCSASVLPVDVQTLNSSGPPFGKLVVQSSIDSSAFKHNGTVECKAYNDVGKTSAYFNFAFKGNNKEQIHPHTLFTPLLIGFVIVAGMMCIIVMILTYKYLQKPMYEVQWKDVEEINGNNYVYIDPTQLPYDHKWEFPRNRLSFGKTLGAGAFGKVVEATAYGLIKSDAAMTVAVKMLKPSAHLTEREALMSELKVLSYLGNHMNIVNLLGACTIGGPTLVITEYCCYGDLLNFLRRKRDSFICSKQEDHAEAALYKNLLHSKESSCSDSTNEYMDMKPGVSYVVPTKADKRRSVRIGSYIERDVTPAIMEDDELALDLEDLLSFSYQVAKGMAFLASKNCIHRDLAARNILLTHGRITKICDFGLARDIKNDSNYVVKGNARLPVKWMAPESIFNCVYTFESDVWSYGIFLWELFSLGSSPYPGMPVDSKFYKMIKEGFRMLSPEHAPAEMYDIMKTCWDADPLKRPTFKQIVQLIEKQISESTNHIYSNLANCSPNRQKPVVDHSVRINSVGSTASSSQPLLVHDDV

| SMILES | remaining binding at 1 µM (AURKA) [%] | remaining binding at 1 µM (CSF1R-autoinhibited) [%] | remaining binding at 1 µM (GSK3B) [%] | remaining binding at 1 µM (IRAK3) [%] | remaining binding at 1 µM (KIT(V559D)) [%] | remaining binding at 1 µM (MAK) [%] | remaining binding at 1 µM (PHKG2) [%] | remaining binding at 1 µM (STK16) [%] |
| --- | --- | --- | --- | --- | --- | --- | --- | --- |
| Clc1cc(NCC2CC2)c2ncc(-c3ccc4[nH]ncc4c3)n2n1 [compound 2, 6-Chloro-N-(cyclopropylmethyl)-3-(1H-indazol-5-yl)imidazo[1,2-b]pyridazin-8-amine] | 90 | 98 | 99 | 100 | 0.45 | 82 | 85 | 100 |
| O=C(CN1CCOCC1)N[C@H]1CC[C@H](Nc2cc(Cl)nn3c(-c4ccc5[nH]ncc5c4)cnc23)CC1 [compound 26] | 98 | 91 | 92 | 49 | 0.05 | 61 | 29 | 83 |
| CN1CCC(CNc2cc(Cl)nn3c(-c4cc5nc(Nc6ccccc6)[nH]c5cc4F)cnc23)CC1 [compound 31, 6-Chloro-3-(6-fluoro-2-(phenylamino)-1H-benzo[d]imidazol-5-yl)-N-((1-methylpiperidin-4-yl)methyl)imidazo[1,2-b]pyridazin-8-amine] | 75 | 100 | 96 | 95 | 67 | 69 | 98 | 96 |
